# Laboratory results taken from patent US20120219615A1, “Therapeutic Use of a TLR Agonist and Combination Therapy” (The Trustees of the University of Pennsylvania, priority 2010, published 2012).
# Read-outs that look alike come from different tables or passages of the source.
# Columns and labels:
# [1] = Phase I clinical study: pharmacokinetics after subcutaneous administration; assay type: in vivo; details: human; for DN AUC(0-∞) / DN Cmax: dose normalized; for DN AUC(0-∞) / DN Cmax / AUC(0-inf) / Cmax / half-life / Tmax: first dose; for AUC(0-inf) / Cmax / half-life / Tmax: plasma, sc
# Protocol: Study Procedures: VTX-2337 was administered weekly via subcutaneous injection on Days 1, 8, and 15 of a 28-day dosing cycle for two cycles. Using a modified Fibonacci dose-escalation scheme, successive cohorts received doses ranging from 0.1 mg/m^2 to 3.9 mg/m^2 of VTX-2337. Plasma samples were collected for pharmacokinetic analysis after the first dose of the first treatment cycle and for pharmacodynamic analyses after the first dose of the first and second treatment cycles.
# Samples were collected at 0.5, 1, 1.5, 2, 4, 8, and 24 hours after subcutaneous administration of the first dose of VTX-2337 and plasma levels of VTX-2337 were quantified by LC-MS/MS. VTX-2337 was rapidly absorbed into systemic circulation with the mean Tmax occurring between 0.5 and 0.8 hours following dosing. […] Peak plasma levels (Cmax) and total systemic exposure both increased with increasing dose. Dose normalized (DN) values for Cmax and AUC(0-∞) were calculated.
# TLR6 = TLR6 (Homo sapiens, UniProt O60603+Q9Y2C9); test: Activity on TLR6; assay type: cell-based; details: concentrations up to 25 μM
# Chain of TLR6 (Q9Y2C9 32-796, species assumed): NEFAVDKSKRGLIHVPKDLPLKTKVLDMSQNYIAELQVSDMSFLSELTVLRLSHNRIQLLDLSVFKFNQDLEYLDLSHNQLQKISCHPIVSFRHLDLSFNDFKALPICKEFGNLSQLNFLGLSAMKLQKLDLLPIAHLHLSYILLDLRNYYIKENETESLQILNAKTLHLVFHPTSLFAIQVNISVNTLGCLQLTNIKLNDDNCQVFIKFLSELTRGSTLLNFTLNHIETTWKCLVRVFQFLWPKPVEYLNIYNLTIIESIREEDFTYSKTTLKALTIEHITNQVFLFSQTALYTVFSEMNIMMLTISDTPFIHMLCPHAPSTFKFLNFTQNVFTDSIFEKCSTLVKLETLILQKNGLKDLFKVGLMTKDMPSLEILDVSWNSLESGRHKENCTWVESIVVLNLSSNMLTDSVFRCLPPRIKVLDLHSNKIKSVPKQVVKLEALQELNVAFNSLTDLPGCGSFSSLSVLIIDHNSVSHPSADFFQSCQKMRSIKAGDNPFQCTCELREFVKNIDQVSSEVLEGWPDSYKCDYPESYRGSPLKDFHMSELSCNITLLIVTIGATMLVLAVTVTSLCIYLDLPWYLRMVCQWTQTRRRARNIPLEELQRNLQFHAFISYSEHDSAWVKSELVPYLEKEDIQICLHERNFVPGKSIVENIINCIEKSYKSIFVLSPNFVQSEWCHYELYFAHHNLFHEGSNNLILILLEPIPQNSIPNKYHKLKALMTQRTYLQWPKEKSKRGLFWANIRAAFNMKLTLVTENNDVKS
# Chain of TLR6 (O60603 21-784, species assumed): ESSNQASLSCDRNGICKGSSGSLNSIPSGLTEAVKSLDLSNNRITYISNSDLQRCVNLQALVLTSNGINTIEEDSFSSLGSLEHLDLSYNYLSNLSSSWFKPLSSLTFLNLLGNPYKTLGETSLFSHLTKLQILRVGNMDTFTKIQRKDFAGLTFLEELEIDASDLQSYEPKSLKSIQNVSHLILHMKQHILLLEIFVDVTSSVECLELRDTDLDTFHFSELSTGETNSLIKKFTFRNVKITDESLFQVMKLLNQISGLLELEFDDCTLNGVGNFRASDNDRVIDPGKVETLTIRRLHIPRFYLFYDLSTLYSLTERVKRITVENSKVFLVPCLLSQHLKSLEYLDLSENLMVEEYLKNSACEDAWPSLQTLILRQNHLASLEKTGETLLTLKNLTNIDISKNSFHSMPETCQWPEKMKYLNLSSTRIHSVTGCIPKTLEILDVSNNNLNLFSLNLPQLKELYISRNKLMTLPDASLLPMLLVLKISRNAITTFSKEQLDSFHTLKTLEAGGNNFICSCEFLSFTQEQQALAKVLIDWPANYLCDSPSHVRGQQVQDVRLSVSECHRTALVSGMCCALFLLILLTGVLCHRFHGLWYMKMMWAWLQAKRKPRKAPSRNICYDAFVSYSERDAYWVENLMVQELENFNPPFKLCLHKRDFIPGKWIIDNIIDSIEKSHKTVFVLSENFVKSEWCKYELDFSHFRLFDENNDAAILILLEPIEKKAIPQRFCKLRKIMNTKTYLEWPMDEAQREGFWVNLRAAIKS
# Protocol: (§1) The half-maximal effective concentration (EC50) for VTX-2337 activation of TLR8 and TLR7 was assessed in peripheral blood mononuclear cells (PBMCs) from 15 healthy donors and also in HEK293 cells transfected with TLR8 or TLR7 and an NF-κB driven reporter gene. […] Also it was observed that VTX-2337 had no activity on TLR2, TLR3, TLR4, TLR5, TLR6, or TLR9 at concentrations up to 25 μM.
# TLR9 = target: T1, TLR9 (Homo sapiens, UniProt Q9NR96); test: Activity on TLR9; assay type: cell-based; details: concentrations up to 25 μM
# T1 sequence (Q9NR96 26-1032): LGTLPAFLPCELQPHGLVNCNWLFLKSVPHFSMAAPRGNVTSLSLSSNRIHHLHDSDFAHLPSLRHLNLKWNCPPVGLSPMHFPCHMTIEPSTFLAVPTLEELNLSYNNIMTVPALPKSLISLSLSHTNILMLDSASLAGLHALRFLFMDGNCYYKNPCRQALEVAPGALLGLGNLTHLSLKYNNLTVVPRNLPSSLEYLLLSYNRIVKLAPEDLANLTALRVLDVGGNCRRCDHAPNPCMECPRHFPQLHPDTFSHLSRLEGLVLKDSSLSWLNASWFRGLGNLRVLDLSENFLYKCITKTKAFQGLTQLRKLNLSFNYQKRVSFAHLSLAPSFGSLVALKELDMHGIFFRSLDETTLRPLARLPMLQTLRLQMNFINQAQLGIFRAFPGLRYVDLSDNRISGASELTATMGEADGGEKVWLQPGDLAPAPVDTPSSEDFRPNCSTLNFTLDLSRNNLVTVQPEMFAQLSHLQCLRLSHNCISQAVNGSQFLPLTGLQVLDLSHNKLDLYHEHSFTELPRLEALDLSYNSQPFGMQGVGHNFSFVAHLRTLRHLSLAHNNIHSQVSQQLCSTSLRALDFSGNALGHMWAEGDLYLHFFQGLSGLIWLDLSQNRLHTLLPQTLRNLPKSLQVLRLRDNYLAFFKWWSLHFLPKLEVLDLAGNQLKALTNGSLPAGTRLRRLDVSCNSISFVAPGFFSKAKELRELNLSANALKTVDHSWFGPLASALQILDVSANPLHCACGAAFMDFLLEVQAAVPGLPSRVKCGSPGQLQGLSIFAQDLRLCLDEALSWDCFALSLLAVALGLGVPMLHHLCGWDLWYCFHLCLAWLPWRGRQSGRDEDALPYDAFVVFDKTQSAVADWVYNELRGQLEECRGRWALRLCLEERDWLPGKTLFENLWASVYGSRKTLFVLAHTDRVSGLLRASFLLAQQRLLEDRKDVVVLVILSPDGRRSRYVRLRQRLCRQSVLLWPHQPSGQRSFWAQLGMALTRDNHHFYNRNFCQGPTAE
# Protocol: as §1
smiles,measurement,setting,value
"CCCN(CCC)C(=O)C1=Cc2ccc(-c3ccc(C(=O)N4CCCC4)cc3)cc2N=C(N)C1 [VTX-2337, 2-amino-N,N-dipropyl-8-(4-(pyrrolidine-1-carbonyl)phenyl)-3H-benzo[b]azepine-4-carboxamide]",DN AUC(0-∞),"[1]; s.c., 0.1 mg/m^2",31.2 (ng · hr/mL)/(mg/m^2)
same,DN Cmax,"[1]; s.c., 0.1 mg/m^2",15.2 (ng/ml)/(mg/m^2)
same,DN AUC(0-∞),"[1]; s.c., 0.2 mg/m^2",23.7 (ng · hr/mL)/(mg/m^2)
same,DN Cmax,"[1]; s.c., 0.2 mg/m^2",9.9 (ng/ml)/(mg/m^2)
same,DN AUC(0-∞),"[1]; s.c., 0.4 mg/m^2",27.4 (ng · hr/mL)/(mg/m^2)
same,DN Cmax,"[1]; s.c., 0.4 mg/m^2",16.7 (ng/ml)/(mg/m^2)
same,DN AUC(0-∞),"[1]; s.c., 0.8 mg/m^2",24.0 (ng · hr/mL)/(mg/m^2)
same,DN Cmax,"[1]; s.c., 0.8 mg/m^2",7.4 (ng/ml)/(mg/m^2)
same,DN AUC(0-∞),"[1]; s.c., 1.3 mg/m^2",22.7 (ng · hr/mL)/(mg/m^2)
same,DN Cmax,"[1]; s.c., 1.3 mg/m^2",8.4 (ng/ml)/(mg/m^2)
same,DN AUC(0-∞),"[1]; s.c., 2.0 mg/m^2",29.6 (ng · hr/mL)/(mg/m^2)
same,DN Cmax,"[1]; s.c., 2.0 mg/m^2",7.3 (ng/ml)/(mg/m^2)
same,DN AUC(0-∞),"[1]; s.c., 2.8 mg/m^2",28.7 (ng · hr/mL)/(mg/m^2)
same,DN Cmax,"[1]; s.c., 2.8 mg/m^2",7.1 (ng/ml)/(mg/m^2)
same,DN AUC(0-∞),"[1]; s.c., 3.9 mg/m^2",20.8 (ng · hr/mL)/(mg/m^2)
same,DN Cmax,"[1]; s.c., 3.9 mg/m^2",5.9 (ng/ml)/(mg/m^2)
same,pharmacokinetics over the dose ranges evaluated,"[1]; s.c., 0.1-3.9 mg/m^2",appeared to be linear
same,AUC(0-inf),[1]; 0.1 mg/m^2 (~0.0022 mg/kg),3.12 ng·h/mL
same,Cmax,[1]; 0.1 mg/m^2 (~0.0022 mg/kg),1.52 ng/mL
same,AUC(0-inf),[1]; 0.2 mg/m^2 (~0.0054 mg/kg),4.74 ng·h/mL
same,Cmax,[1]; 0.2 mg/m^2 (~0.0054 mg/kg),1.97 ng/mL
same,AUC(0-inf),[1]; 0.4 mg/m^2 (~0.011 mg/kg),10.9 ng·h/mL
same,Cmax,[1]; 0.4 mg/m^2 (~0.011 mg/kg),6.69 ng/mL
same,AUC(0-inf),[1]; 0.8 mg/m^2 (~0.022 mg/kg),19.2 ng·h/mL
same,Cmax,[1]; 0.8 mg/m^2 (~0.022 mg/kg),5.93 ng/mL
same,AUC(0-inf),[1]; 1.3 mg/m^2 (~0.035 mg/kg),29.5 ng·h/mL
same,Cmax,[1]; 1.3 mg/m^2 (~0.035 mg/kg),10.9 ng/mL
same,AUC(0-inf),[1]; 2.0 mg/m^2 (~0.054 mg/kg),59.1 ng·h/mL
same,Cmax,[1]; 2.0 mg/m^2 (~0.054 mg/kg),14.6 ng/mL
same,AUC(0-inf),[1]; 2.8 mg/m^2 (~0.076 mg/kg),80.3 ng·h/mL
same,Cmax,[1]; 2.8 mg/m^2 (~0.076 mg/kg),19.9 ng/mL
same,AUC(0-inf),[1]; 3.9 mg/m^2 (~0.105 mg/kg),81.1 ng·h/mL
same,Cmax,[1]; 3.9 mg/m^2 (~0.105 mg/kg),23 ng/mL
same,half-life,"[1]; s.c., 0.1 mg/m^2 (~0.0022 mg/kg), read-out: T1/2 (converted)",1.7 h
same,Tmax,"[1]; s.c., 0.1 mg/m^2 (~0.0022 mg/kg), read-out: Tmax",0.5 h
same,half-life,"[1]; s.c., 0.2 mg/m^2 (~0.0054 mg/kg), read-out: T1/2 (converted)",3 h
same,Tmax,"[1]; s.c., 0.2 mg/m^2 (~0.0054 mg/kg), read-out: Tmax",0.8 h
same,half-life,"[1]; s.c., 0.4 mg/m^2 (~0.011 mg/kg), read-out: T1/2 (converted)",6.6 h
same,Tmax,"[1]; s.c., 0.4 mg/m^2 (~0.011 mg/kg), read-out: Tmax",0.5 h
same,half-life,"[1]; s.c., 0.8 mg/m^2 (~0.022 mg/kg), read-out: T1/2 (converted)",5.3 h
same,Tmax,"[1]; s.c., 0.8 mg/m^2 (~0.022 mg/kg), read-out: Tmax",0.5 h
same,half-life,"[1]; s.c., 1.3 mg/m^2 (~0.035 mg/kg), read-out: T1/2 (converted)",5.6 h
same,Tmax,"[1]; s.c., 1.3 mg/m^2 (~0.035 mg/kg), read-out: Tmax",0.5 h
same,half-life,"[1]; s.c., 2.0 mg/m^2 (~0.054 mg/kg), read-out: T1/2 (converted)",6.7 h
same,Tmax,"[1]; s.c., 2.0 mg/m^2 (~0.054 mg/kg), read-out: Tmax",0.5 h
same,half-life,"[1]; s.c., 2.8 mg/m^2 (~0.076 mg/kg), read-out: T1/2 (converted)",5.7 h
same,Tmax,"[1]; s.c., 2.8 mg/m^2 (~0.076 mg/kg), read-out: Tmax",0.5 h
same,half-life,"[1]; s.c., 3.9 mg/m^2 (~0.105 mg/kg), read-out: T1/2 (converted)",5.3 h
same,Tmax,"[1]; s.c., 3.9 mg/m^2 (~0.105 mg/kg), read-out: Tmax",0.5 h
same,Tmax,"[1]; s.c., across cohorts 0.1-3.9 mg/m^2, read-out: mean Tmax",0.5 to 0.8 h
same,half-life,"[1]; s.c., across cohorts 0.1-3.9 mg/m^2, read-out: mean half-life (t1/2)",1.7 to 6.7 h
same,activity on TLR6,TLR6,no activity
same,activity on TLR9,TLR9,no activity
